# Experimental data as given in patent US20230330093A1, “APPLICATION OF NITROGEN-CONTAINING SATURATED HETEROCYCLIC COMPOUND” (SHANGHAI PHARMACEUTICALS HOLDING CO., LTD., priority 2020, published 2023).
# Experiments:
# cynomolgus monkeys [1] = assay: 4-week safety study: urinalysis; assay type: in vivo; conditions: male and female monkeys
# Procedure: (§1) For the monkey study, at quarantine period (twice, d01 and d02), day 14, day 28 and day 56, the following parameters were measured as shown in Table 20. (1) Hematological and coagulation index examination were performed using a Bayer ADVIA2120 (Germany) and a Sysmex CA-1500 (Japan). (2) The serum biochemical examination was assessed using a HITACHI 7080 automated analyzer (Japan) and an Easylyte PLUS electrolyte analyzer (MEDICA, America). (3) The 24-h pooled urine of each animal was collected by a tray under each cage. Urinalysis was carried out using Uritest-300 (China). (4) The 24-h pooled faeces of each monkey were collected by a tray under each cage. Fecal occult blood was detected. (5) ACCESS 2 Chemiluminescence immunoassay was used for myocardial troponin (TropI, non-GLP) test.
# cynomolgus monkeys [2] = assay: 4-week safety study: hematology and coagulation; assay type: in vivo
# Procedure: as §1, with “For the monkey study, at quarantine period (twice, d01 and d02), day 14, day 28 and day 56, the following parameters were measured as shown in Table 20.” left out
# [3] = all treated females and high-dose males
structure (smiles),measurement,setting,value
COC(=O)NCCCn1nc([C@@H](C)N(C(=O)[C@H]2CNCCO2)C2CC2)c2ccc(C)nc21 [compound of Formula I],urinalysis parameters,cynomolgus monkeys [1],No significant changes
same,APTT,"cynomolgus monkeys [2]; Female, 20 mg/kg, d0",16.7 ± 0.8 s
same,Fbg,"cynomolgus monkeys [2]; Female, 20 mg/kg, d0",2.0 ± 0.3 g/L
same,LYMPH,"cynomolgus monkeys [2]; Female, 20 mg/kg, d0",51.3 ± 18.0%
same,NEUT,"cynomolgus monkeys [2]; Female, 20 mg/kg, d0",42.5 ± 18.8%
same,WBC,"cynomolgus monkeys [2]; Female, 20 mg/kg, d0",15.3 ± 3.6 ×10^9 · L^−1
same,APTT,"cynomolgus monkeys [2]; Female, 20 mg/kg, d14",15.9 ± 1.0 s
same,Fbg,"cynomolgus monkeys [2]; Female, 20 mg/kg, d14",2.9 ± 0.9 g/L
same,LYMPH,"cynomolgus monkeys [2]; Female, 20 mg/kg, d14",40.8 ± 11.3%
same,NEUT,"cynomolgus monkeys [2]; Female, 20 mg/kg, d14",52.5 ± 10.4%
same,WBC,"cynomolgus monkeys [2]; Female, 20 mg/kg, d14",16.0 ± 3.9 ×10^9 · L^−1
same,APTT,"cynomolgus monkeys [2]; Female, 20 mg/kg, d26",18.3 ± 1.4 s
same,Fbg,"cynomolgus monkeys [2]; Female, 20 mg/kg, d26",2.8 ± 0.9 g/L
same,LYMPH,"cynomolgus monkeys [2]; Female, 20 mg/kg, d26",33.1 ± 12.8 %
same,NEUT,"cynomolgus monkeys [2]; Female, 20 mg/kg, d26",61.4 ± 13.2 %
same,WBC,"cynomolgus monkeys [2]; Female, 20 mg/kg, d26",19.1 ± 4.0 ×10^9 · L^−1
same,APTT,"cynomolgus monkeys [2]; Female, 20 mg/kg, d 56",16.4 ± 1.1 s
same,Fbg,"cynomolgus monkeys [2]; Female, 20 mg/kg, d 56",1.7 ± 0.5 g/L
same,LYMPH,"cynomolgus monkeys [2]; Female, 20 mg/kg, d 56",53.1 ± 7.4%
same,NEUT,"cynomolgus monkeys [2]; Female, 20 mg/kg, d 56",38.1 ± 7.1%
same,WBC,"cynomolgus monkeys [2]; Female, 20 mg/kg, d 56",12.4 ± 1.6 ×10^9 · L^−1
same,APTT,"cynomolgus monkeys [2]; Female, 100 mg/kg, d0",15.0 ± 1.6 s
same,Fbg,"cynomolgus monkeys [2]; Female, 100 mg/kg, d0",1.9 ± 0.4 g/L
same,LYMPH,"cynomolgus monkeys [2]; Female, 100 mg/kg, d0",44.0 ± 16.5%
same,NEUT,"cynomolgus monkeys [2]; Female, 100 mg/kg, d0",50.5 ± 17.3%
same,WBC,"cynomolgus monkeys [2]; Female, 100 mg/kg, d0",10.9 ± 2.9 ×10^9 · L^−1
same,APTT,"cynomolgus monkeys [2]; Female, 100 mg/kg, d14",14.5 ± 0.9 s
same,Fbg,"cynomolgus monkeys [2]; Female, 100 mg/kg, d14",2.5 ± 0.4 g/L
same,LYMPH,"cynomolgus monkeys [2]; Female, 100 mg/kg, d14",33.2 ± 4.4 %
same,NEUT,"cynomolgus monkeys [2]; Female, 100 mg/kg, d14",59.5 ± 5.3 %
same,WBC,"cynomolgus monkeys [2]; Female, 100 mg/kg, d14",14.0 ± 4.0 ×10^9 · L^−1
same,APTT,"cynomolgus monkeys [2]; Female, 100 mg/kg, d26",19.7 ± 2.2 s
same,Fbg,"cynomolgus monkeys [2]; Female, 100 mg/kg, d26",3.5 ± 0.8 g/L
same,LYMPH,"cynomolgus monkeys [2]; Female, 100 mg/kg, d26",30.0 ± 6.8 %
same,NEUT,"cynomolgus monkeys [2]; Female, 100 mg/kg, d26",63.2 ± 6.4 %
same,WBC,"cynomolgus monkeys [2]; Female, 100 mg/kg, d26",15.9 ± 6.2 ×10^9 · L^−1
same,APTT,"cynomolgus monkeys [2]; Female, 100 mg/kg, d 56",15.8 ± 1.5 s
same,Fbg,"cynomolgus monkeys [2]; Female, 100 mg/kg, d 56",2.1 ± 0.3 g/L
same,LYMPH,"cynomolgus monkeys [2]; Female, 100 mg/kg, d 56",48.7 ± 0.6%
same,NEUT,"cynomolgus monkeys [2]; Female, 100 mg/kg, d 56",45.2 ± 2.3%
same,WBC,"cynomolgus monkeys [2]; Female, 100 mg/kg, d 56",9.9 ± 1.0 ×10^9 · L^−1
same,APTT,"cynomolgus monkeys [2]; Female, 450 mg/kg, d0",16.9 ± 1.4 s
same,Fbg,"cynomolgus monkeys [2]; Female, 450 mg/kg, d0",1.8 ± 0.3 g/L
same,LYMPH,"cynomolgus monkeys [2]; Female, 450 mg/kg, d0",51.8 ± 12.2%
same,NEUT,"cynomolgus monkeys [2]; Female, 450 mg/kg, d0",43.3 ± 12.3%
same,WBC,"cynomolgus monkeys [2]; Female, 450 mg/kg, d0",14.4 ± 1.7 ×10^9 · L^−1
same,APTT,"cynomolgus monkeys [2]; Female, 450 mg/kg, d14",18.6 ± 0.8 s
same,Fbg,"cynomolgus monkeys [2]; Female, 450 mg/kg, d14",3.9 ± 0.8 g/L
same,LYMPH,"cynomolgus monkeys [2]; Female, 450 mg/kg, d14",30.1 ± 14.3 %
same,NEUT,"cynomolgus monkeys [2]; Female, 450 mg/kg, d14",63.5 ± 15.2 %
same,WBC,"cynomolgus monkeys [2]; Female, 450 mg/kg, d14",16.9 ± 7.8 ×10^9 · L^−1
same,APTT,"cynomolgus monkeys [2]; Female, 450 mg/kg, d26",20.1 ± 3.1 s
same,Fbg,"cynomolgus monkeys [2]; Female, 450 mg/kg, d26",4.2 ± 0.7 g/L
same,LYMPH,"cynomolgus monkeys [2]; Female, 450 mg/kg, d26",26.9 ± 8.9 %
same,NEUT,"cynomolgus monkeys [2]; Female, 450 mg/kg, d26",67.5 ± 9.2 %
same,WBC,"cynomolgus monkeys [2]; Female, 450 mg/kg, d26",18.1 ± 3.7 ×10^9 · L^−1
same,APTT,"cynomolgus monkeys [2]; Female, 450 mg/kg, d 56",18.0 ± 3.5 s
same,Fbg,"cynomolgus monkeys [2]; Female, 450 mg/kg, d 56",1.4 ± 0.0 g/L
same,LYMPH,"cynomolgus monkeys [2]; Female, 450 mg/kg, d 56",53.3 ± 0.3%
same,NEUT,"cynomolgus monkeys [2]; Female, 450 mg/kg, d 56",42.3 ± 0.6%
same,WBC,"cynomolgus monkeys [2]; Female, 450 mg/kg, d 56",14.0 ± 4.9 ×10^9 · L^−1
same,APTT,"cynomolgus monkeys [2]; Male, 20 mg/kg, d0",16.4 ± 1.1 s
same,Fbg,"cynomolgus monkeys [2]; Male, 20 mg/kg, d0",2.1 ± 0.6 g/L
same,LYMPH,"cynomolgus monkeys [2]; Male, 20 mg/kg, d0",55.3 ± 14.6%
same,NEUT,"cynomolgus monkeys [2]; Male, 20 mg/kg, d0",39.9 ± 14.6%
same,WBC,"cynomolgus monkeys [2]; Male, 20 mg/kg, d0",13.4 ± 2.5 ×10^9 · L^−1
same,APTT,"cynomolgus monkeys [2]; Male, 20 mg/kg, d14",17.8 ± 2.7 s
same,Fbg,"cynomolgus monkeys [2]; Male, 20 mg/kg, d14",3.2 ± 0.8 g/L
same,LYMPH,"cynomolgus monkeys [2]; Male, 20 mg/kg, d14",51.1 ± 19.6%
same,NEUT,"cynomolgus monkeys [2]; Male, 20 mg/kg, d14",43.1 ± 20.4%
same,WBC,"cynomolgus monkeys [2]; Male, 20 mg/kg, d14",17.7 ± 9.3 ×10^9 · L^−1
same,APTT,"cynomolgus monkeys [2]; Male, 20 mg/kg, d26",19.5 ± 2.4 s
same,Fbg,"cynomolgus monkeys [2]; Male, 20 mg/kg, d26",2.2 ± 0.4 g/L
same,LYMPH,"cynomolgus monkeys [2]; Male, 20 mg/kg, d26",59.5 ± 11.9%
same,NEUT,"cynomolgus monkeys [2]; Male, 20 mg/kg, d26",35.1 ± 12.4%
same,WBC,"cynomolgus monkeys [2]; Male, 20 mg/kg, d26",13.8 ± 6.5 ×10^9 · L^−1
same,APTT,"cynomolgus monkeys [2]; Male, 20 mg/kg, d 56",21.3 ± 4.0 s
same,Fbg,"cynomolgus monkeys [2]; Male, 20 mg/kg, d 56",3.1 ± 1.4 g/L
same,LYMPH,"cynomolgus monkeys [2]; Male, 20 mg/kg, d 56",53.3 ± 14.3%
same,NEUT,"cynomolgus monkeys [2]; Male, 20 mg/kg, d 56",38.5 ± 12.6%
same,WBC,"cynomolgus monkeys [2]; Male, 20 mg/kg, d 56",20.1 ± 4.2 ×10^9 · L^−1
same,APTT,"cynomolgus monkeys [2]; Male, 100 mg/kg, d0",16.6 ± 1.8 s
same,Fbg,"cynomolgus monkeys [2]; Male, 100 mg/kg, d0",2.2 ± 0.3 g/L
same,LYMPH,"cynomolgus monkeys [2]; Male, 100 mg/kg, d0",61.5 ± 16.2%
same,NEUT,"cynomolgus monkeys [2]; Male, 100 mg/kg, d0",32.6 ± 18.2%
same,WBC,"cynomolgus monkeys [2]; Male, 100 mg/kg, d0",12.6 ± 2.3 ×10^9 · L^−1
same,APTT,"cynomolgus monkeys [2]; Male, 100 mg/kg, d14",15.5 ± 0.5 s
same,Fbg,"cynomolgus monkeys [2]; Male, 100 mg/kg, d14",2.8 ± 0.7 g/L
same,LYMPH,"cynomolgus monkeys [2]; Male, 100 mg/kg, d14",48.0 ± 12.2%
same,NEUT,"cynomolgus monkeys [2]; Male, 100 mg/kg, d14",45.2 ± 12.2%
same,WBC,"cynomolgus monkeys [2]; Male, 100 mg/kg, d14",15.6 ± 6.6 ×10^9 · L^−1
same,APTT,"cynomolgus monkeys [2]; Male, 100 mg/kg, d26",22.5 ± 2.5 s
same,Fbg,"cynomolgus monkeys [2]; Male, 100 mg/kg, d26",4.1 ± 1.2 g/L
same,LYMPH,"cynomolgus monkeys [2]; Male, 100 mg/kg, d26",32.1 ± 9.4%
same,NEUT,"cynomolgus monkeys [2]; Male, 100 mg/kg, d26",60.8 ± 10.5%
same,WBC,"cynomolgus monkeys [2]; Male, 100 mg/kg, d26",20.3 ± 2.9 ×10^9 · L^−1
same,APTT,"cynomolgus monkeys [2]; Male, 100 mg/kg, d 56",17.7 ± 1.0 s
same,Fbg,"cynomolgus monkeys [2]; Male, 100 mg/kg, d 56",1.7 ± 0.3 g/L
same,LYMPH,"cynomolgus monkeys [2]; Male, 100 mg/kg, d 56",52.7 ± 9.0%
same,NEUT,"cynomolgus monkeys [2]; Male, 100 mg/kg, d 56",42.5 ± 11.2%
same,WBC,"cynomolgus monkeys [2]; Male, 100 mg/kg, d 56",14.1 ± 0.2 ×10^9 · L^−1
same,APTT,"cynomolgus monkeys [2]; Male, 450 mg/kg, d0",17.0 ± 2.1 s
same,Fbg,"cynomolgus monkeys [2]; Male, 450 mg/kg, d0",2.2 ± 0.7 g/L
same,LYMPH,"cynomolgus monkeys [2]; Male, 450 mg/kg, d0",48.6 ± 16.8%
same,NEUT,"cynomolgus monkeys [2]; Male, 450 mg/kg, d0",46.9 ± 17.3%
same,WBC,"cynomolgus monkeys [2]; Male, 450 mg/kg, d0",12.0 ± 3.8 ×10^9 · L^−1
same,APTT,"cynomolgus monkeys [2]; Male, 450 mg/kg, d14",16.1 ± 0.8 s
same,Fbg,"cynomolgus monkeys [2]; Male, 450 mg/kg, d14",3.1 ± 1.0 g/L
same,LYMPH,"cynomolgus monkeys [2]; Male, 450 mg/kg, d14",35.6 ± 15.5%
same,NEUT,"cynomolgus monkeys [2]; Male, 450 mg/kg, d14",59.2 ± 16.0%
same,WBC,"cynomolgus monkeys [2]; Male, 450 mg/kg, d14",16.7 ± 6.4 ×10^9 · L^−1
same,APTT,"cynomolgus monkeys [2]; Male, 450 mg/kg, d26",20.0 ± 3.3 s
same,Fbg,"cynomolgus monkeys [2]; Male, 450 mg/kg, d26",4.1 ± 0.6 g/L
same,LYMPH,"cynomolgus monkeys [2]; Male, 450 mg/kg, d26",26.5 ± 12.0 %
same,NEUT,"cynomolgus monkeys [2]; Male, 450 mg/kg, d26",68.6 ± 12.3 %
same,WBC,"cynomolgus monkeys [2]; Male, 450 mg/kg, d26",18.6 ± 5.9 ×10^9 · L^−1
same,APTT,"cynomolgus monkeys [2]; Male, 450 mg/kg, d 56",19.9 ± 0.3 s
same,Fbg,"cynomolgus monkeys [2]; Male, 450 mg/kg, d 56",1.8 ± 0.0 g/L
same,LYMPH,"cynomolgus monkeys [2]; Male, 450 mg/kg, d 56",59.8 ± 22.8%
same,NEUT,"cynomolgus monkeys [2]; Male, 450 mg/kg, d 56",36.7 ± 23.2%
same,WBC,"cynomolgus monkeys [2]; Male, 450 mg/kg, d 56",14.6 ± 0.8 ×10^9 · L^−1
same,LYMPH %,cynomolgus monkeys [2]; [3],decreased
same,NEUT %,cynomolgus monkeys [2]; [3],Increased
same,APTT,cynomolgus monkeys [2]; high-dose females,increases
same,Fbg,cynomolgus monkeys [2]; mid- and high-dose animals,increases
